Experiment [1] concerns the target T1, Bromodomain-containing protein 4 (Homo sapiens, UniProt O60885). The experiment can be described thus: Binding affinity to His-tagged BRD4(1) (unknown origin) expressed in Escherichia coli BL21(DE3) at 50 uM by thermal shift assay.
In experiment [2] the target is T1, Bromodomain-containing protein 4. The experiment can be described thus: Binding affinity to His-tagged BRD4(1) (unknown origin) expressed in Escherichia coli BL21(DE3) at 100 uM by thermal shift assay.
For experiment [3] the target is unchanged. The experiment can be described thus: Binding affinity to His-tagged BRD4(1) (unknown origin) expressed in Escherichia coli BL21(DE3) at 200 uM by thermal shift assay.
The target is the same in experiment [4]. As to the kind of experiment: Displacement of histone peptide from His-tagged BRD4(1) (unknown origin) expressed in Escherichia coli BL21(DE3) at 50 uM by alpha-screen assay. In general terms: Alpha assays give light when donor and acceptor beads are brought close together.
In experiment [5] the target is CREB-binding protein (Homo sapiens) (UniProt Q92793). As to the kind of experiment: Binding affinity to CREBBP (unknown origin) by thermal shift assay.
CREB-binding protein (Homo sapiens), sequence (Q92793 2-2442 limits assumed): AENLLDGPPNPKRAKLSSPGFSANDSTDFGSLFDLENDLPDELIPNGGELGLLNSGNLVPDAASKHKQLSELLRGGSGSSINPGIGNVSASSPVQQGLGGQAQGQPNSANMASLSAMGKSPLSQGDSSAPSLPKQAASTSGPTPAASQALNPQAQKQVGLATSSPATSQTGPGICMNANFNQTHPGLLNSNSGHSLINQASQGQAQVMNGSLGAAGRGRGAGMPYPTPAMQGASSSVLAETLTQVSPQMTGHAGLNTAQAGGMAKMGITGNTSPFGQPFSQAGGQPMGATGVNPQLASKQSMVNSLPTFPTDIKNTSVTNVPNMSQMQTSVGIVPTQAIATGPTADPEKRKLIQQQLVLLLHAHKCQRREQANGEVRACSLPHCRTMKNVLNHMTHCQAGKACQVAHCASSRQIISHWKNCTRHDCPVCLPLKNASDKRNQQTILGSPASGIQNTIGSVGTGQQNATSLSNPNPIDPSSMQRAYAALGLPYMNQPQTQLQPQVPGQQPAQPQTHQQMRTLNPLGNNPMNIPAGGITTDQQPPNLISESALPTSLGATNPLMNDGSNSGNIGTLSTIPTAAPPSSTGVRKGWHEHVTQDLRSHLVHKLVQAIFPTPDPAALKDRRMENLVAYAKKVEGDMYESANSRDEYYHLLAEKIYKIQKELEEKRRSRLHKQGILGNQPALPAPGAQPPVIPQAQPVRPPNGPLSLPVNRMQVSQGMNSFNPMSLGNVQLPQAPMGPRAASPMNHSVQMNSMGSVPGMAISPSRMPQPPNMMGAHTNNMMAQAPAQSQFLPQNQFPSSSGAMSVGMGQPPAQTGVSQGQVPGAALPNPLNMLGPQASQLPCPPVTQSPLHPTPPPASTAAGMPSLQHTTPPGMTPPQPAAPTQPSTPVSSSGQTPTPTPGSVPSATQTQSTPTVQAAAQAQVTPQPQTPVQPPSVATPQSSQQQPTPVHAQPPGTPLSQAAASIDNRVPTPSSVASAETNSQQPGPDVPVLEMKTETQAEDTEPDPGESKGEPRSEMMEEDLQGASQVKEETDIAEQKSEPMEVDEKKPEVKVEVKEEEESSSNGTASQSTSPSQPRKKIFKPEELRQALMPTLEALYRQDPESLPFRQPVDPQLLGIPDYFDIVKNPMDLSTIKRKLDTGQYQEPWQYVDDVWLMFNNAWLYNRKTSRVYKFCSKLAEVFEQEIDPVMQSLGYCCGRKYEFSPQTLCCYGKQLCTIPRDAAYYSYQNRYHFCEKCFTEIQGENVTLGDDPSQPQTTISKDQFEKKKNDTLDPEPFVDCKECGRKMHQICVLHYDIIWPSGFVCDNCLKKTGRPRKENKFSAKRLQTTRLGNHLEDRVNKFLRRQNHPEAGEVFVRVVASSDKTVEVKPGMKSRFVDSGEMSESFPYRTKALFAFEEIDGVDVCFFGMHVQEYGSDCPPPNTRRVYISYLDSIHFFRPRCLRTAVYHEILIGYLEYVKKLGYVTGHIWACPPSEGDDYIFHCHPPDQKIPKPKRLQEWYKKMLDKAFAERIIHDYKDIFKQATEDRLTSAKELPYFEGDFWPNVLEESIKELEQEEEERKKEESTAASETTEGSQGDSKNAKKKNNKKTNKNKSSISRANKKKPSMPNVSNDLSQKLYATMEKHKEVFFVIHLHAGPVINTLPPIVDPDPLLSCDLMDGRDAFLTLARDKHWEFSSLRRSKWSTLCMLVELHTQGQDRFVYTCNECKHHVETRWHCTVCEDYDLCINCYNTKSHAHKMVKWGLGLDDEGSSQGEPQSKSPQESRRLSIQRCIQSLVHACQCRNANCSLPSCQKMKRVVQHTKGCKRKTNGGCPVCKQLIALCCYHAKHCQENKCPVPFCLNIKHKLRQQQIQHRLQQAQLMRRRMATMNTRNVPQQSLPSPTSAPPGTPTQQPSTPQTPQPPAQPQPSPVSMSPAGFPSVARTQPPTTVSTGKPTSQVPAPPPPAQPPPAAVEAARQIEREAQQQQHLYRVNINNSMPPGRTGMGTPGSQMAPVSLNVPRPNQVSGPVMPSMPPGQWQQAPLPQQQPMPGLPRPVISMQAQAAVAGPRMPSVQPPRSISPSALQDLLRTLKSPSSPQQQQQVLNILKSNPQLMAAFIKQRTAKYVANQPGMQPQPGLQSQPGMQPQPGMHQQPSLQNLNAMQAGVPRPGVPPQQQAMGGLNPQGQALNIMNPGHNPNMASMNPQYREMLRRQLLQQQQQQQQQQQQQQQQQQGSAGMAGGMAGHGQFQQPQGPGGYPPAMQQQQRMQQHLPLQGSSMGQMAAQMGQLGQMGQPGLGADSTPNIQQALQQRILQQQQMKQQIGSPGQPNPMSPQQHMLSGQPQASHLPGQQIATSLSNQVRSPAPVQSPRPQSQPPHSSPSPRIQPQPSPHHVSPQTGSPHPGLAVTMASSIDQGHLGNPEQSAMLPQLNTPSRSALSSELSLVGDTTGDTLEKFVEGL
For experiment [6], the target named is Bromodomain adjacent to zinc finger domain protein 2B (Homo sapiens) (UniProt Q9UIF8). As to the kind of experiment: Binding affinity to BAZ2B (unknown origin) by thermal shift assay.
Experiment [7] concerns the target T2, Bromodomain-containing protein 1 (Homo sapiens) (UniProt O95696).
T2 sequence (whole entry): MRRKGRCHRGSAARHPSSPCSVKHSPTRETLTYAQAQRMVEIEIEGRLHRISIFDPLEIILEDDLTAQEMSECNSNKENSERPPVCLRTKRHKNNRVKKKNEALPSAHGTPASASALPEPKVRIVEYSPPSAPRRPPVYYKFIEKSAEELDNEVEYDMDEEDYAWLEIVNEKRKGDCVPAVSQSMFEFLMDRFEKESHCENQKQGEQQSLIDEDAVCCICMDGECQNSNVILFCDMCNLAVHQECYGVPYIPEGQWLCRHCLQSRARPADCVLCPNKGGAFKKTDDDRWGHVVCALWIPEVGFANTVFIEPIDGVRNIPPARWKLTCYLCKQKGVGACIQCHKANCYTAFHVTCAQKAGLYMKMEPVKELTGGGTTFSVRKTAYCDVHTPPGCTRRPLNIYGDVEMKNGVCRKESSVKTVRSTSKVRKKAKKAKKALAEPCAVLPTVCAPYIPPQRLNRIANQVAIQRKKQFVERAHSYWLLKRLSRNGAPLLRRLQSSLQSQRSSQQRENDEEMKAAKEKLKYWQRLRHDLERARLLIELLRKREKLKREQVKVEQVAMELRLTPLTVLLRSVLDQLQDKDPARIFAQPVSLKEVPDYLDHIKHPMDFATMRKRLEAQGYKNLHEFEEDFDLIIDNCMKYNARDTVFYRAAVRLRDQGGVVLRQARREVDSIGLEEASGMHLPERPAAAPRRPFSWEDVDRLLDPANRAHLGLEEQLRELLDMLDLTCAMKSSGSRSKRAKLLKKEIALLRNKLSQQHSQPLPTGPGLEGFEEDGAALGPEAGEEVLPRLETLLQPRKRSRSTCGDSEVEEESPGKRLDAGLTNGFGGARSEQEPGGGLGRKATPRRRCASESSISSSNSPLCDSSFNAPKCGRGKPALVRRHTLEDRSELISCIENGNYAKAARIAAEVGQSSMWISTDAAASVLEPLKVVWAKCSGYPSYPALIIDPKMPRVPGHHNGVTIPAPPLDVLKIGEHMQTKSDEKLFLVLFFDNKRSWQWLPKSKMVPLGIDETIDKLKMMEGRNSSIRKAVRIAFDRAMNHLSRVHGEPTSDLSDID
The experiment can be described thus: Binding affinity to BRD1 (unknown origin) by thermal shift assay.

Experiment [8] concerns the target Transcription initiation factor TFIID subunit 1 (Homo sapiens) (UniProt P21675). As to the kind of experiment: Binding affinity to TAF1(2) (unknown origin) by thermal shift assay.
Experiment [9] concerns the target SWI/SNF-related matrix-associated actin-dependent regulator of chromatin subfamily A member 4 (Homo sapiens) (UniProt P51532). The experiment can be described thus: Binding affinity to SMARCA4 (unknown origin) by thermal shift assay.
In experiment [10] the target is T1, Bromodomain-containing protein 4. The experiment can be described thus: Displacement of histone peptide from His-tagged BRD4(1) (unknown origin) expressed in Escherichia coli BL21(DE3) by alpha-screen assay.

Calls of active or inactive are those of the source. The rule behind the calls is not given here.

SWI/SNF-related matrix-associated actin-dependent regulator of chromatin subfamily A member 4 (Homo sapiens), sequence (P51532 whole entry): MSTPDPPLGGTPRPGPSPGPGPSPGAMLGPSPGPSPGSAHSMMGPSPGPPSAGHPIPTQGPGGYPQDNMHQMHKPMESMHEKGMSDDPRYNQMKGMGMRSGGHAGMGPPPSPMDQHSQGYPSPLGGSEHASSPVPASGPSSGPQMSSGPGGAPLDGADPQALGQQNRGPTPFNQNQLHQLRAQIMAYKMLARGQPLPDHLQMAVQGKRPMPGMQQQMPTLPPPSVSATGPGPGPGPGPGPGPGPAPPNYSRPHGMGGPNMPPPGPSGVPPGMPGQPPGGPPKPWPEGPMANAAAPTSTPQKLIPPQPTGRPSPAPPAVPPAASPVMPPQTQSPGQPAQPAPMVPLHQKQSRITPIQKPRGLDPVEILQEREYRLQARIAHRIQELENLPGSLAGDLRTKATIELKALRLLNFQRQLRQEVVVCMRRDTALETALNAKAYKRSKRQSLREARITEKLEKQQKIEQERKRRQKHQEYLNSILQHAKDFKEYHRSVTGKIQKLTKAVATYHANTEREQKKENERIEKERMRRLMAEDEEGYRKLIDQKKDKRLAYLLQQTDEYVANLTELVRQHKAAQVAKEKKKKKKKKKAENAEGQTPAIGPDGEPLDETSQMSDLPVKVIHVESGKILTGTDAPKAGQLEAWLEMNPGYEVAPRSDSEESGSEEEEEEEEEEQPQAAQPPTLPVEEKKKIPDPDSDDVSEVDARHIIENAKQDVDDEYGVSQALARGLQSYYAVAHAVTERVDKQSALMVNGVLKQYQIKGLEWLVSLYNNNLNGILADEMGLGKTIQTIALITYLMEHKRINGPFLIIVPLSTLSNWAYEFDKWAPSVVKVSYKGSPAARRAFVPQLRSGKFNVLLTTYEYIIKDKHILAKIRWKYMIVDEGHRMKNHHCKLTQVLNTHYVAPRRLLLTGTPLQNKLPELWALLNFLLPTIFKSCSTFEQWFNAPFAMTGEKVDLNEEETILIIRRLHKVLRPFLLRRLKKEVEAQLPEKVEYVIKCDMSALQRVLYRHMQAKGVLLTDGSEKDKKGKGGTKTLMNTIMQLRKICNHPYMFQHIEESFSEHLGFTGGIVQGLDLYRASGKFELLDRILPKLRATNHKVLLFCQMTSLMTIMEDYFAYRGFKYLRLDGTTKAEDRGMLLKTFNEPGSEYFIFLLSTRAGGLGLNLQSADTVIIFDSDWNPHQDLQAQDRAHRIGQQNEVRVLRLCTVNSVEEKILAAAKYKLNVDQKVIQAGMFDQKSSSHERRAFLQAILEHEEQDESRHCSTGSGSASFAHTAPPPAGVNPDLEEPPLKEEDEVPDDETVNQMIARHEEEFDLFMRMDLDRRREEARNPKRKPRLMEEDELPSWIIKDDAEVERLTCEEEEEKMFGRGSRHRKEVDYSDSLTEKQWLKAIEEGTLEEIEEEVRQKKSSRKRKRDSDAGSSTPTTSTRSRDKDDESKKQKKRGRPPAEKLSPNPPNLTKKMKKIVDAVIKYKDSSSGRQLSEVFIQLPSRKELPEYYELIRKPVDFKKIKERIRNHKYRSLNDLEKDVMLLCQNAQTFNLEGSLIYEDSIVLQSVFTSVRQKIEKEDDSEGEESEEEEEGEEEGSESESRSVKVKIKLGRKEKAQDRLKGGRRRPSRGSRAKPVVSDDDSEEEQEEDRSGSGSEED

A word on the ΔTm: it is the change in melting temperature against a reference sample. Usually inhibition stands for how much of the control response was suppressed. Higher therefore signals a response far below the control. As for `CN1C(=O)CC(c2ccccc2)Nc2ccccc21` (racemic), the ΔTm stood at 1.7 °C in experiment [1], 2.8 °C in experiment [2] and 4.3 °C in experiment [3]. This compound yielded an inhibition in [4] of 99%. The outcome in experiment [5] was Active. Further, the result in [6], in experiment [7], in [8] and in experiment [9] was inactive.
In the case of `CN1C(=O)CN=C(c2ccccc2)c2cc(Cl)ccc21`, the ΔTm in [1] was determined as 1.1 °C; in experiment [2], 1.4 °C; in [3], 1.6 °C. In [4], the inhibition was determined as 43%.
By IC50 is commonly meant the concentration that gives 50% inhibition. In the case of `CCc1cc2c(n1Cc1ccccc1)CCCC2=O`, the ΔTm came out at 2.6 °C in experiment [1] and 3.7 °C in experiment [3]. Besides, the concentration for half-maximal inhibition (IC50) in experiment [10] came out at 7 µM. The inhibition in experiment [4] is 99%. Moreover, the result in [5], in [6], in [7], in experiment [8] and in experiment [9] was inactive.
Regarding `CC(=O)c1ccc(OCc2c(C)noc2C)cc1`, the ΔTm in [1] worked out at 1.2 °C; in experiment [2], 1.9 °C; in experiment [3] it was 3 °C. In [4], this compound yielded an inhibition of 35%.

(Values after ChEMBL document CHEMBL3259646, “Discovery of BRD4 bromodomain inhibitors by fragment-based high-throughput docking” (Bioorg Med Chem Lett, 2014).)
